Test results published in PMC8352984, “Estrogen mediates sex differences in preoptic neuropeptide and pituitary hormone production in medaka” (Communications Biology, 2021).

Legend:
[1] = system: adcyap1-expressing neurons in the PMp; test: Gonadectomy and sex steroid treatment, in situ hybridization of adcyap1 in PMp; format: in vivo, medaka (Oryzias latipes); settings: 100 ng ml^-1 in water, 6 days; for number of adcyap1-expressing neurons in PMp: castrated (CX) males
Description: (§1) Fig. 4 Sex-biased expression of adcyap1 and vip in the POA is established by ovarian estrogen. a Levels of adcyap1 and vip expression in the brain of sex-reversed XX males and XY females versus typical XY males and XX females (n = 8 per group). b Number of adcyap1- and vip-expressing neurons in the PMp of sex-reversed XX males and XY females (n = 5 per group). c Representative micrographs showing adcyap1 and vip expression in the PMp of sex-reversed XX males and XY females. Scale bars represent 50 μm. d Number of adcyap1- and vip-expressing neurons in the PMp of sham-operated (sham) males and castrated males exposed to vehicle alone (CX), 11-ketotestosterone (CX + KT), or estradiol-17β (CX + E2) (n = 5 per group, except CX + E2 for adcyap1 and CX + KT for vip, where n = 4). e Representative micrographs showing adcyap1 and vip expression in the PMp of sham, CX, CX + KT, and CX + E2 males. Scale bars represent 50 μm. f Number of adcyap1- and vip-expressing neurons in the PMp of sham females and ovariectomized females exposed to vehicle alone (OVX), KT (OVX + KT), or E2 (OVX + E2) (n = 5 per group). g Representative micrographs showing adcyap1 and vip expression in the PMp of sham, OVX, OVX + KT, and OVX + E2 females. Scale bars represent 50 μm. Quantitative data were expressed as means with error bars representing standard error of the mean. Statistical differences were assessed by Bonferroni’s post-hoc test (a, d, f) and unpaired t-test (b). *p < 0.05; **p < 0.01; ***p < 0.001.
(§2) For both males and females, the gonad was removed under 0.02% tricaine methane sulfonate anesthesia (Sigma–Aldrich, St. Louis, MO, USA) through a small incision in the ventrolateral abdominal wall. Immediately after removal of the gonad, the incision was sutured with nylon thread. Sham-operated fish underwent the same surgical treatment as gonadectomized fish except for gonad removal. After a recovery period of 3 days in saline (0.9% (w v^−1) NaCl), gonadectomized fish were immersed in water containing 100 ng ml^−1 of KT (Cosmo Bio, Tokyo, Japan) or E2 (Fujifilm Wako Pure Chemical Corporation), or vehicle (ethanol) alone for 6 days and then sampled. Sham-operated fish were treated with vehicle alone and used as controls. The sex steroid concentration used was based on previously reported serum steroid levels in medaka.
(§3) The procedure for single-label in situ hybridization has been described elsewhere. In brief, the brain and pituitary were fixed in 4% paraformaldehyde (PFA) and embedded in paraffin. Serial coronal sections of 10 μm thickness were cut and hybridized with each of the six DIG-labeled Adcyap1/Vip receptor probes described above and the DIG-labeled adcyap1 and vip probes used for northern blot analysis. Hybridization signals were visualized by using alkaline phosphatase-conjugated anti-DIG antibody and 5-bromo-4-chloro-3-indolyl phosphate/nitro blue tetrazolium (BCIP/NBT) substrate (Roche Diagnostics). Color development was allowed to proceed for more than 9 h or was stopped after 1.5 h to avoid saturation (for quantification of vip expression after gonadectomy and sex steroid replacement). All sections in each comparison were processed simultaneously under the same conditions.
(§4) To obtain quantitative data, the number of neurons positive for a hybridization signal was counted manually in each brain nucleus. In some brain regions, these neurons were continuously distributed across two or more nuclei such that it was difficult to count the number of the neurons separately in each nucleus. In this case, the total number of the neurons in the nuclei was counted. For the pituitary and nuclei where these neurons were tightly clustered and their exact number could not be determined, sections were photographed and converted to black and white binary images by thresholding using Adobe Photoshop (ver. 22; Adobe Systems, San Jose, CA, USA). […]

[2] = system: vip-expressing neurons in the PMp; test: Gonadectomy and sex steroid treatment, in situ hybridization of vip in PMp; format: in vivo, medaka (Oryzias latipes); settings: 100 ng ml^-1 in water, 6 days; for number of vip-expressing neurons in PMp: castrated (CX) males
Description: as §1, §2, §3, §4

[3] = ovariectomized females, effect on the ovariectomy-induced increase
[4] = ovariectomized females, effect on the ovariectomy-induced reduction

Compound | number of adcyap1-expressing neurons in PMp ([1]; fish 1 (Fig. 4d)) | number of adcyap1-expressing neurons in PMp ([1]; fish 2 (Fig. 4d)) | number of adcyap1-expressing neurons in PMp ([1]; fish 3 (Fig. 4d)) | number of adcyap1-expressing neurons in PMp ([1]; fish 4 (Fig. 4d)) | number of adcyap1-expressing neurons in PMp ([1]; fish 5 (Fig. 4d)) | number of adcyap1-expressing neurons in PMp (in words) ([1]; castrated males) | number of adcyap1-expressing neurons in PMp (in words) [1, 3] | number of vip-expressing neurons in PMp ([2]; fish 1 (Fig. 4d)) | number of vip-expressing neurons in PMp ([2]; fish 3 (Fig. 4d)) | number of vip-expressing neurons in PMp ([2]; fish 4 (Fig. 4d)) | number of vip-expressing neurons in PMp ([2]; fish 5 (Fig. 4d)) | number of vip-expressing neurons in PMp (in words) ([2]; castrated males) | number of vip-expressing neurons in PMp (in words) [2, 4] | number of vip-expressing neurons in PMp ([2]; fish 2 (Fig. 4d))
C[C@]12CC(=O)[C@H]3[C@@H](CCC4=CC(=O)CC[C@@]43C)[C@@H]1CC[C@@H]2O [KT, 11-ketotestosterone] | 198.0 | 271.0 | 273.5 | 161.5 | 147.0 | did not affect either of these neurons | had no such effect | 98.5 | 118.0 | 84.5 | 192.5 | did not affect either of these neurons | not KT treatment | 
C[C@]12CC[C@@H]3c4ccc(O)cc4CC[C@H]3[C@@H]1CC[C@@H]2O [E2, estradiol-17β] | 56.0 |  | 85.0 | 112.0 | 79.5 | significantly reduced adcyap1-expressing neurons | completely abolished | 260.0 | 363.0 | 447.0 | 311.0 | increased vip-expressing neurons | restored | 388.5
